{
  "source": "patent US20260225982A1",
  "about": "“NEW METHOD FOR OZONOLYSIS AND REDUCTIVE QUENCHING OF OZONIDES” (P2 SCIENCE, INC., priority 2023, published 2026)",
  "origin": "cited, not measured here",
  "key": {"[1]": {"test_system": "rat"}, "[2]": {"conditions": "species and route not given; given in comparison with oral rat LD50 of glyoxal"}},
  "data": [
    {"smiles": "O=CC=O", "note": "[Glyoxal]", "values": [
      {"measurement": "oral rat LD50", "setting": "[1]; oral", "value": 3300, "unit": "mg/kg"}
    ]},
    {"smiles": "O=CC(=O)O", "note": "[Glyoxylic acid]", "values": [
      {"measurement": "rat LD50", "setting": "[1]; in vivo", "value": 2500, "unit": "mg/kg"}
    ]},
    {"smiles": "[Cl-].[Na+]", "note": "[table salt]", "values": [
      {"measurement": "LD50", "setting": "[2]", "value": 3000, "unit": "mg/kg"}
    ]}
  ]
}
